Assay results from PMC555771 (Journal of Biomedicine and Biotechnology, 2004).

Experiments:
baboons [1] = experiment: IgG levels, body weights and food consumption in baboons; settings: during the study (data not shown)
baboons [2] = settings: in vivo
CETP = settings: ref [10]; cited from earlier work
[3] = tested on: baboons fed the HCHF diet; type: in vivo, baboon
[4] = tested on: cynomolgus monkeys fed the HCHF diet; type: in vivo, cynomolgus monkey; settings: single iv injection 20 mg/kg, at day 7, n=2, P<.05

## truncated apoC-I peptide: 38 amino acid N-terminal fragment of apoC-I peptide based on human sequences, made by solid-phase synthesis; CETP inhibitor (TPDVSSALDKLKEFGNTLEDKARELISRIKQSELSAKM; UniProt P02654 27-64, looked up, fragment)
Baboons [1]
  body weights: no change
  food consumption: no change
Baboons [2]
  plasma IgG levels, change in response to peptide infusion: did not change significantly
CETP
  CETP activity in the plasma of low-HDL baboons: inhibited CETP activity
[3]; intravenous, 10, 15, 20 mg/kg on days 0, 7, 14, n=3
  day by which VLDL + LDL cholesterol reached baseline values: ≤ 25 days
[3]; intravenous, 10, 15, 20 mg/kg on days 0, 7, 14, n=3, P<.05
  maximum increase in HDL cholesterol concentration: 20%
[3]; intravenous, 10, 15, 20 mg/kg on days 0, 7, 14, until day 19, except at day 4, n=3
  change in plasma triglycerides: decreased
[3]; subcutaneous, 10, 15, 20 mg/kg on days 0, 7, 14, n=3
  day on which VLDL + LDL cholesterol returned to baseline values: 28 days
[3]; subcutaneous, 10, 15, 20 mg/kg on days 0, 7, 14, on day 19, n=3
  maximum decrease in VLDL + LDL cholesterol: 20%
[3]; subcutaneous, 10, 15, 20 mg/kg on days 0, 7, 14, on day 23, n=3
  maximum increase in HDL cholesterol: 20%
[4]
  maximum decrease in plasma LDL cholesterol levels: 26.5 ± 4.5%
